Results on 28 compounds are retold here after patent US10450297B2, “Sulfonyl amide derivatives for the treatment of abnormal cell growth” (Pfizer, Inc., priority 2007, dated 2019).

FAK kinase (catalytic construct FAK(410-689)), sequence (Q05397 410-689): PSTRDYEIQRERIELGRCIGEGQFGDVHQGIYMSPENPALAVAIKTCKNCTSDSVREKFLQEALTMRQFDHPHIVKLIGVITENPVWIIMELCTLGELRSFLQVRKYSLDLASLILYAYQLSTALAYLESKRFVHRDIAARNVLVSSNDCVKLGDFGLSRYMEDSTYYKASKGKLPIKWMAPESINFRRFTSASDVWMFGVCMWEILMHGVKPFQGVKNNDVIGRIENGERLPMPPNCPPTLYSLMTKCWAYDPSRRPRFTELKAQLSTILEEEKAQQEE

The assay addresses FAK kinase (catalytic construct FAK(410-689)) (Homo sapiens (Human), UniProt Q05397). The assay can be described thus: FAKcd kinase ELISA (inhibition of poly-glu-tyr phosphorylation by FAK(410-689)). Type of assay: biochemical. Conditions: 50 μM final ATP. Background: An ELISA detects its analyte on a solid surface through an enzyme-linked reagent.
Take `CN(c1ncccc1CNc1nc(Nc2ccc(C(=O)NCCCCCO)cc2)ncc1C(F)(F)F)S(C)(=O)=O` [Compound 270, N-(5-hydroxypentyl)-4-({4-[({2-[methyl(methylsulfonyl)amino]pyridin-3-yl}methyl)amino]-5-(trifluoromethyl)pyrimidin-2-yl}amino)benzamide]: the IC50 – broadly, the midpoint of a concentration-inhibition curve – came out at 0.99 nM.

The compound `CN(c1ncccc1CNc1nc(Nc2ccc(C(N)=O)cn2)ncc1C(F)(F)F)S(C)(=O)=O` [Compound 59, 6-({4-[({2-[methyl(methylsulfonyl)amino]pyridin-3-yl}methyl)amino]-5-(trifluoromethyl)pyrimidin-2-yl}amino)nicotinamide] came in with an IC50 of 8.93 nM.

For `CN(c1ccnc(CNc2nc(Nc3ccc(C(N)=O)cc3)ncc2C(F)(F)F)c1)S(C)(=O)=O` [Compound 404, 4-({4-[({4-[methyl(methylsulfonyl)amino]pyridin-2-yl}methyl)amino]-5-(trifluoromethyl)pyrimidin-2-yl}amino)benzamide], the IC50 is 2.07 nM.

Regarding `CN(c1cccc(CNc2nc(Nc3ccc(F)c(C(N)=O)c3)ncc2C(F)(F)F)c1)S(C)(=O)=O` [Compound 379, 2-fluoro-5-{[4-({3-[methyl(methylsulfonyl)amino]benzyl}amino)-5-(trifluoromethyl)pyrimidin-2-yl]amino}benzamide], 4.78 nM corresponded to half-maximal inhibition (IC50).

As to `Cc1cnccc1Nc1ncc(C(F)(F)F)c(NCc2cccnc2N(C)S(C)(=O)=O)n1` [Compound 94, N-methyl-N-{3-[({2-[(3-methylpyridin-4-yl)amino]-5-(trifluoromethyl)pyrimidin-4-yl)amino)methyl]pyridin-2-yl]methanesulfonamide], half-maximal inhibition (IC50) was put at 8.01 nM.

As to `Cc1ccc(N(C)S(C)(=O)=O)c(CNc2nc(Nc3ccc(C(N)=O)cc3)ncc2C(F)(F)F)c1` [Compound 110, 4-{[4-({5-methyl-2-[methyl(methylsulfonyl)amino]benzyl}amino)-5-(trifluoromethyl)pyrimidin-2-yl]amino}benzamide], the IC50 came to 0.6 nM.

Take `CN(c1nccnc1CNc1nc(Nc2ccc(C(N)=O)c(Cl)c2)ncc1C(F)(F)F)S(C)(=O)=O` [Compound 360, 2-chloro-4-({4-[({3-[methyl(methylsulfonyl)amino]pyrazin-2-yl}methyl)amino]-5-(trifluoromethyl)pyrimidin-2-yl}amino)benzamide]: the 50% inhibitory concentration (IC50) is below 0.595 nM.

With `C[C@H]1COCCN1C(=O)c1ccc(Nc2ncc(C(F)(F)F)c(NCc3cccnc3N(C)S(C)(=O)=O)n2)cc1` [Compound 261, N-methyl-N-{3-[({2-[(4-{[(3S)-3-rnethylmorpholin-4-yl]carbonyl}phenyl)amino]-5-(trifluoromethyl)pyrimidin-4-yl}amino)methyl]pyridin-2-yl}methanesulfonamide], the IC50 is 1.13 nM.

Take `CN(c1ncccc1CNc1nc(Nc2cccc(C(=O)N3C[C@@H](F)[C@H](F)C3)c2)ncc1C(F)(F)F)S(C)(=O)=O` [Compound 153, N-{3-[({2-[(3-{[(3R,4R)-3,4-difluoropyrrolidin-1-yl]carbonyl}phenyl)amino)-5-(trifluoromethyl)pyrimidin-4-yl}amino)methyl]pyridin-2-yl}-N-methylmethane-sulfonamide]: the IC50 was determined as 3.35 nM.

Take `CC(=O)N1CCC(Nc2ncc(C(F)(F)F)c(NCc3cccnc3N(C)S(C)(=O)=O)n2)CC1` [Compound 45, N-{3-[({2-[(1-acetylpiperidin-4-yl)amino]-5-(trifluoromethyl)pyrimidin-4-yl}amino)methyl)pyridin-2-yl}-N-methylmethane-sulfonamide]: the IC50 came out at 188 nM. Against the preceding compound, the IC50 is about 56-fold higher.

With `CCNC(=O)c1ccc(Nc2ncc(C(F)(F)F)c(NCc3ncccc3N(C)S(C)(=O)=O)n2)cc1` [Compound 97, N-ethyl-4-({4-[({3-[methyl(methylsulfonyl)amino]pyridin-2-yl}methyl)amino]-5-(trifluoromethyl)pyrimidin-2-yl}amino)benzamide], the IC50 was 0.59 nM. This IC50 is about 320-fold lower than that of the compound before.

`Cc1ccc(CNc2nc(Nc3ccc(C(N)=O)cc3)ncc2C(F)(F)F)c(NS(C)(=O)=O)c1` [Compound 112, 4-{[4-({4-methyl-2-((methylsulfonyl)amino]benzyl}amino)-5-(trifluoromethyl)pyrimidin-2-yl]amino}benzamide] showed an IC50 of 0.6 nM.

Take `Cc1ccc(CNc2nc(Nc3ccc(N4CCCS4(=O)=O)cc3)ncc2C(F)(F)F)c(N(C)S(C)(=O)=O)n1` [Compound 28, N-[3-({[2-{[4-(1,1-dloxidolsothiazolidin-2-yl)phenyl]amino}-5-(trifluoromethyl)pyrimidin-4-yl]amino}methyl)-6-methylpyridin-2-yl]-N-methylmethanesulfonamide]: half-maximal inhibition (IC50) was put at 2.01 nM.

Regarding `CS(=O)(=O)c1cccc(CNc2nc(Nc3ccc(N4CCCS4(=O)=O)cc3)ncc2C(F)(F)F)c1` [Compound 29, N~2~-[4-(1,1-dioxidoisothiazolidin-2-yl)phenyl]-N-4~-[3-(methylsulfonyl)benzyl]-5-(trifluoromethyl)pyrimidine-2,4-diamine], the midpoint of inhibition, the IC50, lay at 2.09 nM. This IC50 and that of the compound before are within 1.5-fold of each other.

Take `CN(c1ncccc1CNc1nc(Nc2ccc(C(N)=O)cc2)ncc1C(F)(F)F)S(C)(=O)=O` [Compound 19, 4-({4-[({2-[methyl(methylsulfonyl)amino]pyridin-3-yl}methyl)amino]-5-(trifluoromethyl)pyrimidin-2-yl}amino)benzamide]: the IC50 stood at 3.4 nM.

For `CC(=O)NCc1ccc(Nc2ncc(C(F)(F)F)c(NCc3cccnc3N(C)S(C)(=O)=O)n2)cc1` [Example 5, N-(4-(4-((2-(N-methylmethan-5-ylsulfonamido)pyridin-3-yl)methylamino)-5-(trifluoromethyl)pyrimidin-2-ylamino)benzyl)acetamide], 0.6 nM corresponded to half-maximal inhibition (IC50). Against the preceding compound, the IC50 is about 5.7-fold lower.

In the case of `CC(=O)NCCNC(=O)c1cccc(Nc2ncc(C(F)(F)F)c(NCc3cccnc3N(C)S(C)(=O)=O)n2)c1` [Compound 167, N-[2-(acetylamino)ethyl]-3-({4-[({2-[methyl(methylsulfonyl)amino]pyridin-3-yl}methyl)amino]-5-(trifluoromethyl)pyrimidin-2-yl}amino)benzamide], half-maximal inhibition (IC50) required 3.44 nM. Against the preceding compound, the IC50 is about 5.7-fold higher.

With `CC1CCN(C(=O)c2ccc(Nc3ncc(C(F)(F)F)c(NCc4cccnc4N(C)S(C)(=O)=O)n3)cc2)CC1` [Compound 265, N-methyl-N-[3-({[2-({4-[(4-methylpiperidin-1-yl)carbonyl]phenyl}amino)-5-(trifluoromethyl)pyrimidin-4-yl]amino}methyl)pyridin-2-yl]methanesulfonamide], the IC50 was 0.6 nM.

For `CN(c1ncccc1CNc1nc(Nc2cccc(C(=O)NCC3(C)COC3)c2)ncc1C(F)(F)F)S(C)(=O)=O` [Compound 141, 3-({4-[({2-[methyl(methylsulfonyl)amino]pyridin-3-yl}methyl)amino]-5-(trifluoromethyl)pyrimidin-2-yl}amino)-N-[(3-methyloxetan-3-yl)methyl]benzamide], half-maximal inhibition (IC50) required 0.84 nM.

`CN(c1ncccc1CNc1nc(Nc2cccc(C(=O)NC3CC3)c2)ncc1C(F)(F)F)S(C)(=O)=O` [Example 11, N-cyclopropyl-3-({4-[({2-[methyl(methylsulfonyl)amino]pyridin-3-yl}methyl)amino]-5-(trifluoromethyl)pyrimidin-2-yl}amino)benzamide] came in with a half-maximal inhibitory concentration (IC50) of 1.86 nM.

On to `CN(c1ncccc1CNc1nc(Nc2ccc(N3CCOCC3)cn2)ncc1C(F)(F)F)S(C)(=O)=O` [Compound 293, N-methyl-N-{3-[({2-[(5-morpholin-4-ylpyridin-2-yl)amino]-5-(trifluoromethyl)pyrimidin-4-yl}amino)methyl]pyridin-2-yl]methanesulfonamide], for which the IC50 was below 0.595 nM.

`Cc1cccc(CNc2nc(Nc3ccc(C(N)=O)cc3)ncc2C(F)(F)F)c1N(C)S(C)(=O)=O` [Compound 108, 4-{[4-({3-methyl-2-[methyl(methylsulfonyl)amino]benzyl}amino)-5-(trifluoromethyl)pyrimidin-2-yl]amino}benzamide] returned an IC50 of 0.6 nM.

Regarding `CC(=O)Nc1cccc(Nc2ncc(C(F)(F)F)c(NCc3nccnc3N(C)S(C)(=O)=O)n2)c1` [Compound 385, N-[3-({4-[({3-[methyl(methylsulfonyl)amino]pyrazin-2-yl}methyl)amino]-5-(trifluoromethyl)pyrimidin-2-yl}amino)phenyl]acetamide], it took 1.44 nM to reach half-maximal inhibition (IC50).

Take `CN(c1ncccc1CNc1nc(Nc2ccc(C(=O)N3CCC3)cc2)ncc1C(F)(F)F)S(C)(=O)=O` [Compound 253, N-[3-({[2-{[4-(azetidin-1 - ylcarbonyl)phenyl]amino}-5-(trifluoromethyl)pyrimidin-4-yl]amino}methyl)pyridin-2-yl]-N-methylmethane-sulfonarriide]: the IC50 worked out at 0.6 nM. This IC50 is about 2.4-fold lower than that of the compound before.

`C[C@@H](CO)NC(=O)c1cccc(Nc2ncc(C(F)(F)F)c(NCc3cccnc3N(C)S(C)(=O)=O)n2)c1` [Compound 211, N-[(1S)-2-hydroxy-1-methylethyl]-3-({4-[({2-[methyl(methylsulfonyl)amino]pyridin-3-yl}methyl)amino]-5-(trifluoromelhyl)pyrimidin-2-yl}amino)benzamide] registered an IC50 of 1.06 nM. Compared with the last compound, the IC50 is about 1.8-fold higher.

As for `CN(c1ncccc1CNc1nc(Nc2cccc(C(=O)N3CC(O)C3)c2)ncc1C(F)(F)F)S(C)(=O)=O` [Compound 90, N-[3-({[2-({3-{(3-hydroxyazetidin-1-yl)carbonyl]phenyl}amino)-5-(trifluoromethyl)pyrimidin-4-yl]amino}methyl)pyridin-2-yl]-N-methylmethane-sulfonamide], the IC50 was 0.72 nM.

`CC(=O)NCC(=O)Nc1cccc(Nc2ncc(C(F)(F)F)c(NCc3cccc(N(C)S(C)(=O)=O)c3)n2)c1` [Compound 399, N-2-acetyl-N-(3-{[4-({3-[methyl(methylsulfonyl)amino]benzyl}amino)-5-(trifluoromethyl)pyrimidin-2-yl]amino}phenyl)glycinamide] gave an IC50 of 5.57 nM.

`CCOC(=O)Cc1ccc(Nc2ncc(C(F)(F)F)c(NCc3cccnc3N(C)S(C)(=O)=O)n2)cc1` [Compound 98, ethyl [4-({4-[({2-[methyl(methylsulfonyl)amino]pyridin-3-yl}methyl)amino]-5-(trifluoromethyl)pyrimidin-2-yl}amino)phenyl]acetate] registered an IC50 of 0.59 nM.
